What was measured:
[1] = Urinary excretion of phenolic metabolites after single 400 mL juçara juice intake (HPLC-DAD, LC-ESI-MS/MS); type: in vivo, human; conditions: for AUC / Cmax: urine, mean ± SEM, n = 9–10; for AUC: 0–6 h after 400 mL juçara juice; for Cmax: 10 healthy subjects, after 400 mL juçara juice
Excerpt: Study volunteers were selected according to the following inclusion criteria: no clinical conditions such as cardiovascular, endocrine, gastrointestinal, renal, or hepatic diseases; no visible or known infections or inflammatory processes within three months of the study; no use of medicines or dietary supplements, no smoking, no regular alcohol drinking. The other criteria were BMI < 30 kg/m^2 and no gastric intolerance or complications related to the juçara juice intake. […] The subjects were advised to avoid vegetable and fruit sources of anthocyanins or their derivatives, such as açai, blackberries, blueberries, cherries, red and purple grapes, strawberries, and green and black tea, two days before the study. […] The subjects were also instructed not to practice intense physical activity and not to deprive themselves of sleeping before the outset of the study protocol. […] Subsequently, the participants drank 400 mL of the juçara juice within 5 min. Blood (30, 60, 120, and 360 min) and urine (0–3, 3–6 h) were collected again. The volunteers continued fasting during the 6 h of the sample collection time. The study protocol was based on evidence that anthocyanins appear to be rapidly absorbed and then eliminated within 4 h. […] Blood oxidative stress biomarkers were assessed, and urine metabolites of phenolic compounds were measured.
Phenolic compounds were extracted in urine using Waters OASIS HLB μElution plates (Milford, MA, USA), which were preconditioned with 250 μL methanol and 250 μL 0.2% acetic acid. After urine collection, the samples were immediately acidified with trifluoracetic acid. Aliquots of the samples were applied to the μ Columns of the plates and the phenolic compounds were eluted with methanol acidified with 0.2% acetic acid. The eluate was dried using CentriVap Benchtop Vacuum Concentrators (Labconco, Kansas City, MO, USA), reconstituted with methanol acidified with 5% acetic acid, and filtered with a […] PTEF filter (Millipore, Bedford, MA, USA).
The mobile phase consisted of two solvents: (A) 0.5% formic acid in water and (B) 0.5% formic acid in acetonitrile. The gradient used was 10% (B) at the beginning, 10% at 5 min, 20% at 15 min, 25% at 25 min, 35% at 33 min, 50% at 38 min, 90% at 43–44 min and 10% at 45 min. […] Quantification was based on the calibration curves of the PCA, VA, iVA, HA, HBA, and HPA standards. The concentrations were expressed as μmol/mmol creatinine for urine samples, and the elimination values were expressed in μmol. Urinary creatinine was evaluated using a Labtest kit (Labtest Diagnóstica S.A., Lagoa Santa, Minas Gerais, Brazil). The area under the curve (AUC) was calculated using the trapezoidal rule (data expressed as μmol/h), and the maximum concentration (Cmax) was calculated using the Origin 6.0 software (OriginLab Corporation, Northampton, MA, USA) and expressed as the mean and standard error of the mean (SEM). The samples collected from 0 to 3 h (after the juçara juice intake) were indicated as 3 h urine and the samples collected from 3 to 6 h were designated as 6 h urine to indicate the period of excretion. The standards’ purity varied from 95 to 98%.
Phenolic compounds’ metabolites were identified using a Prominence Liquid Chromatograph (Shimadzu, Japan) coupled to an ion trap Esquires-LC mass spectrometer (Bruker Daltonics, Billerica, MA, USA) with an electrospray ionization (ESI) interface. The chromatography condition was the same as that used for metabolite quantification by HPLC-DAD. After passing through the DAD detector, the flow rate was changed to 0.2 mL/min to inject the samples into the mass spectrometer. ESI was left in the positive mode for anthocyanins and in the negative mode for the other compounds. […] Scanning m/z was 100–1500.

[2] = set-up: method as in PMID 12488939, PMID 34430750; conditions: toluene-free healthy volunteers; cited from earlier work

average urine concentration at baseline ([1]; baseline samples, before the juice intake)	Structure (SMILES)	AUC [1]	Cmax [1]	normal urine value [2]
	COc1cc(C(=O)O)ccc1O [Vanillic acid]	191.42 ± 25.98 µmol/h	20.13 ± 2.27 µmol/mmol Creatinine	
	O=C(O)[C@H]1O[C@@H](Oc2c(-c3ccc(O)cc3)oc3cc(O)cc(O)c3c2=O)[C@H](O)[C@@H](O)[C@@H]1O [Kaempferol glucuronide]	138.05 ± 20.58 µmol/h	13.62 ± 1.89 µmol/mmol Creatinine	
	O=C(O)c1ccc(O)c(O)c1.O=C(O)c1ccc(O)c(O)c1 [Protocatechuic acid, 3,4-Dihydroxybenzoic acid (protocatechuic acid)]	282.89 ± 49.31 µmol/h	28.26 ± 3.62 µmol/mmol Creatinine	
	O=C(O)Cc1ccc(O)cc1 [Hydroxyphenylacetic acid]	3527.78 ± 657.52 µmol/h	334.09 ± 46.79 µmol/mmol Creatinine	
	COc1cc(C(=O)O)ccc1O[C@@H]1O[C@H](C(=O)O)[C@@H](O)[C@H](O)[C@H]1O [Vanillic acid glucuronide]	164.38 ± 14.98 µmol/h	16.74 ± 1.33 µmol/mmol Creatinine	
around 243.06 µmol/mmol creatinine	O=C(O)CNC(=O)c1ccccc1 [Hippuric acid]	6483.34 ± 1159.82 µmol/h	605.80 ± 75.74 µmol/mmol Creatinine	126.36–245.13 µmol/mmol creatinine

Source: paper PMC10253860, “Kinetic Profile of Urine Metabolites after Acute Intake of a Phenolic Compounds-Rich Juice of Juçara (Euterpe edulis Mart.) and Antioxidant Capacity in Serum and Erythrocytes: A Human Study” (International Journal of Molecular Sciences, 2023)
